Experimental data from US8975264B2, “Compound acting as a cannabinoid receptor-1 inhibitor” (Amorepacific Corporation, priority 2010, dated 2015).

molecular target: human CB1 (cannabinoid receptor 1) (Homo sapiens, UniProt P21554); test: CB1 receptor inhibition effect: calcium ion influx assay (Fluo-4 NW) in Chem-1 cells after 1 μM R-(+)-WIN55212-2; format: cell-based; conditions: calcium ion influx in Chem-1 cells expressing human CB1, 1 μM R-(+)-WIN55212-2
Description: When cells in which the cannabinoid receptor 1 (CB1) is stably expressed are treated with a CB1 receptor agonist, the CB1 receptor is activated and influx of calcium ions into the cells increases. CB1 receptor inhibition effect of a test compound can be evaluated by measuring the degree of calcium influx inhibition after treating with the test compound.
First, Chem-1 cells (Chemicon International, #HTS019C) in which human CB1 cDNA is expressed stably were seeded onto a 96-well cell culture plate at a density of ˜50,000 cells/well and incubated overnight in a 5% CO2 incubator at 37° C. The next day, the culture medium was discarded and the cells were cautiously washed once using an assay buffer (HBSS containing 20 mM HEPES and 2.5 mM probenecid) with 200 μL/well. Calcium ion influx was measured using an assay kit (Fluo-4 NW calcium assay kit: Molecular Probes™, #F36206) according to the manufacturer's instructions. The compounds of Examples of desired concentration to be measured were comprised to 0.5% DMSO. For control, only 0.5% DMSO was used without the compounds of Examples. Reaction time was 10 minutes. After treating the Chem-1 cells stably expressing the CB1 receptor with 1 μM R-(+)-WIN55212-2 (Sigma, #W102), a CB1 receptor agonist, calcium ion (Ca^2+) flux induced thereby was measured for 80 seconds using Flex Station 3 (Molecular Device, USA).
The difference in calcium ion concentration of the cells treated with the compounds of Examples or those treated with 1 μM R-(+)-WIN55212-2 was obtained from the difference of the maximum and minimum values during the 80 seconds. Then, % inhibition of the compounds for the CB1 receptor was calculated using the following equation. % inhibition={1−(ΔRFUcompound−ΔRFUBlank)/(ΔRFUControl−ΔRFUBlank)}×100 [Equation]
ΔRFU: maximum relative fluorescence units−minimum relative fluorescence units
ΔRFUCompound: difference in maximum and minimum RFUs in the well where the compounds of Examples dissolved in DMSO to a final concentration of 0.5% and 1 μM R-(+)-WIN55212-2 dissolved in DMSO to a final concentration of 0.5% were added
ΔRFUBlank: difference in maximum and minimum RFUs in the well to which only 1% DMSO was added
ΔRFUControl: difference in maximum and minimum RFUs in the well where 0.5% DMSO and 1 μM R-(+)-WIN55212-2 dissolved in DMSO to a final concentration of 0.5% were added

Chain of human CB1 (cannabinoid receptor 1) (P21554 whole entry): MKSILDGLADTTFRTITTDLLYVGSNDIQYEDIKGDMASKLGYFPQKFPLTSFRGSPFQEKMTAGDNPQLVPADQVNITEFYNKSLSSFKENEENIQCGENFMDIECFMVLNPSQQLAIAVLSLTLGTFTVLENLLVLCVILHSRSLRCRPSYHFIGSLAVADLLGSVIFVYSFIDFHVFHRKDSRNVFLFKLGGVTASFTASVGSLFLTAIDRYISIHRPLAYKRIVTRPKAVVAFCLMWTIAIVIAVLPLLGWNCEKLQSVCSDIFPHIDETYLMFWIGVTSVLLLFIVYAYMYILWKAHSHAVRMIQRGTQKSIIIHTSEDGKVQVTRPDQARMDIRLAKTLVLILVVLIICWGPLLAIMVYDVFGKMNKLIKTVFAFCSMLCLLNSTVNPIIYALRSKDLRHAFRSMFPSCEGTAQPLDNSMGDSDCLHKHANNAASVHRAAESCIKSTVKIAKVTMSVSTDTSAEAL

| SMILES | IC50 [µM] |
| --- | --- |
| COCc1nn2c(-c3ccc(F)cc3)cc(N(C)CCO)nc2c1-c1ccc(Cl)cc1 [Example 260] | 0.007 |
| COc1ccc(-c2c(C)nn3c(-c4ccccc4F)cc(N4CCC[C@H]4CO)nc23)cc1 [Example 39] | 0.25 |
| COCc1nn2c(-c3ccc(F)cc3)cc(N3CCC[C@H]3CO)nc2c1-c1ccc(OC)cc1 [Example 222] | 0.008 |
| Cc1ccc(-c2c(C)nn3c(-c4ccccc4F)cc(N4CCC[C@H]4CO)nc23)cc1 [Example 33] | 0.082 |
| CCOCc1nn2c(-c3cccc(C(F)(F)F)c3)cc(N3CCC[C@H]3CO)nc2c1-c1ccc(OC)cc1 [Example 212] | 0.026 |
| CCOCc1nn2c(-c3cccc(OC)c3)cc(NCCO)nc2c1-c1ccc2c(c1)OCO2 [Example 268] | 0.3 |
| CCOc1ccc(-c2c(C)nn3c(-c4cccc(OC)c4)cc(N4CCC[C@H]4CO)nc23)cc1 [Example 51] | 0.25 |
| CCOc1ccc(-c2c(C)nn3c(-c4ccccc4)cc(N4CCC[C@H]4CO)nc23)cc1 [Example 47, (S)-(1-(3-(4-ethoxyphenyl)-7-phenyl-2-methylpyrazolo[1,5-a]pyrimidin-5-yl)pyrrolidin-2-yl)methanol] | 0.13 |
| CCOCc1nn2c(-c3cccc(C(F)(F)F)c3)cc(N3CCC[C@H]3CO)nc2c1-c1ccc(C)cc1 [Example 204] | 0.006 |
| COCc1nn2c(-c3cccc(C)c3)cc(N3CCC[C@H]3CO)nc2c1-c1ccc(OC)cc1 [Example 227] | 0.048 |
| Cc1nn2c(-c3cccc(C(F)(F)F)c3)cc(N3CCC[C@H]3CO)nc2c1-c1ccc(C(F)F)cc1 [Example 126] | 0.069 |
| CCCOc1ccc(-c2c(C)nn3c(-c4cccc(C(F)(F)F)c4)cc(N4CCC[C@H]4CO)nc23)cc1 [Example 133] | 0.28 |
| COCc1nn2c(-c3cccc(C(F)(F)F)c3)cc(N3CCC[C@H]3CO)nc2c1-c1ccc(OC)cc1 [Example 221, (S)-{1-[2-methoxymethyl-7-(3-(trifluoromethyl)phenyl)-3-(4-methoxyphenyl)-pyrazolo[1,5-a]pyrimidin-5-yl]pyrrolidin-2-yl}methanol] | 0.007 |
| COc1ccc(-c2c(C)nn3c(-c4ccc(F)cc4)cc(N4CCC[C@H]4CO)nc23)cc1 [Example 64, (S)-(1-(3-(4-methoxyphenyl)-7-(4-fluorophenyl)-2-methylpyrazolo[1,5-a]pyrimidin-5-yl)pyrrolidin-2-yl)methanol] | 0.17 |
| Cc1nn2c(-c3cccc(C(F)(F)F)c3)cc(N3CCC[C@H]3CO)nc2c1-c1ccc(C(F)(F)F)cc1 [Example 128] | 0.066 |
| CCCOc1ccc(-c2c(C)nn3c(-c4ccc(F)cc4)cc(N4CCC[C@H]4CO)nc23)cc1F [Example 100] | 0.31 |

| SMILES | IC50 [µM] |
| --- | --- |
| COc1ccc(-c2c(C)nn3c(-c4ccc(Cl)cc4)cc(N4CCC[C@H]4CO)nc23)cc1 [Example 44] | 0.16 |
| Cc1nn2c(-c3ccc(F)cc3)cc(N3CCC[C@H]3CO)nc2c1-c1ccccc1 [Example 83] | 0.22 |
| CCOCc1nn2c(-c3ccc(F)cc3)cc(NCCO)nc2c1-c1ccc(C)cc1 [Example 263, 2-[2-ethoxymethyl-7-(4-fluorophenyl)-3-(4-methylphenyl)-pyrazolo[1,5-a]pyrimidin-5-yl-amino]ethanol] | 0.09 |
| CCOc1ccc(-c2c(C)nn3c(-c4ccc(F)cc4)cc(N4CCC[C@H]4CO)nc23)cc1 [Example 65] | 0.1 |
| CCOCc1nn2c(-c3cccc(C(F)(F)F)c3)cc(N3CCC[C@H]3CO)nc2c1-c1ccc(Cl)cc1 [Example 208] | 0.007 |
| CSc1ccc(-c2c(C)nn3c(-c4ccc(F)cc4)cc(N4CCC[C@H]4CO)nc23)cc1 [Example 68] | 0.17 |
| C=Cc1ccc(-c2c(C)nn3c(-c4ccc(F)cc4)cc(N4CCC[C@H]4CO)nc23)cc1 [Example 71] | 0.21 |
| CCOCc1nn2c(-c3cccc(F)c3)cc(N3CCC[C@H]3CO)nc2c1-c1ccc(OC)cc1 [Example 210] | 0.17 |
| COCc1nn2c(-c3cccc(F)c3)cc(N3CCC[C@H]3CO)nc2c1-c1ccc(OC)cc1 [Example 223] | 0.005 |
| COCc1nn2c(-c3cccc(C(F)(F)F)c3)cc(N3CCC[C@H]3CO)nc2c1-c1ccc(Cl)cc1 [Example 233] | 0.006 |
| Cc1ccc(-c2cnn3c(-c4cc(F)cc(F)c4)cc(N4CCC[C@H]4CO)nc23)cc1 [Example 273] | 0.23 |
| Cc1cccc(-c2cc(N3CCC[C@H]3CO)nc3c(-c4ccc(OC(F)(F)F)cc4)c(C)nn23)c1 [Example 168] | 0.45 |
| Cc1ccc(-c2cnn3c(-c4cccc(F)c4)cc(N4CCC[C@H]4CO)nc23)cc1 [Example 270] | 0.44 |
| Cc1ccc(-c2c(C)nn3c(-c4ccc(F)cc4F)cc(N4CCC[C@H]4CO)nc23)cc1 [Example 34] | 0.22 |
| CCOCc1nn2c(-c3cccc(OC)c3)cc(N3CCC[C@H]3CO)nc2c1-c1ccc(C)cc1 [Example 203] | 0.03 |
| COCc1nn2c(-c3cccc(C)c3)cc(N3CCC[C@H]3CO)nc2c1-c1ccc(Cl)cc1 [Example 234] | 0.015 |

The remaining lines, values ahead:

| IC50 [µM] | SMILES |
| --- | --- |
| 0.25 | Cc1cccc(-c2cc(N3CCC[C@H]3CO)nc3c(-c4ccc(F)cc4)c(C)nn23)c1 [Example 167] |
| 0.14 | Cc1nn2c(-c3cccc(F)c3)cc(N3CCC[C@H]3CO)nc2c1-c1ccc(C(F)(F)F)cc1 [Example 115] |
| 0.1 | COc1ccc(-c2c(C)nn3c(-c4ccc(F)c(F)c4)cc(N4CCC[C@H]4CO)nc23)cc1 [Example 38, (S)-{1-[7-(3,4-difluorophenyl)-3-(4-methoxyphenyl)-2-methylpyrazolo[1,5-a]pyrimidin-5-yl)pyrrolidin-2-yl)methanol] |
| 0.21 | CCc1cccc(-c2cc(N3CCC[C@H]3CO)nc3c(-c4ccc(OC)cc4)c(C)nn23)c1 [Example 43] |
| 0.06 | COc1ccc(-c2c(C)nn3c(-c4cccc(F)c4)cc(N4CCC[C@H]4CO)nc23)cc1 [Example 111] |
| 0.14 | Cc1nn2c(-c3cccc(C(F)(F)F)c3)cc(N3CCC[C@H]3CO)nc2c1-c1ccc(F)cc1 [Example 139] |
| 0.045 | Cc1ccc(-c2c(C)nn3c(-c4cccc(C(F)(F)F)c4)cc(N4CCC[C@H]4CO)nc23)cc1 [Example 122] |
| 0.27 | Cc1ccc(-c2c(C)nn3c(-c4cccc(Cl)c4)cc(N4CCC[C@H]4CO)nc23)cc1F [Example 176] |
| 0.26 | Cc1cccc(-c2cc(N3CCC[C@H]3CO)nc3c(-c4ccc(C(F)(F)F)cc4)c(C)nn23)c1 [Example 163] |
| 0.046 | Cc1ccc(-c2c(C)nn3c(-c4cccc(C)c4)cc(N4CCC[C@H]4CO)nc23)cc1 [Example 156] |
| 0.27 | Cc1ccc(-c2cc(N3CCC[C@H]3CO)nc3c(-c4ccc(Cl)cc4)c(C)nn23)cc1 [Example 11] |
| 0.033 | COc1ccc(-c2c(C)nn3c(-c4cccc(Cl)c4)cc(N4CCC[C@H]4CO)nc23)cc1 [Example 169, (S)-(1-(3-(4-methoxyphenyl)-7-(3-chlorophenyl)-2-methylpyrazolo[1,5-a]pyrimidin-5-yl)pyrrolidin-2-yl)methanol] |
| 0.07 | Cc1nn2c(-c3cc(F)cc(F)c3)cc(N3CCC[C@H]3CO)nc2c1-c1ccc2c(c1)OCO2 [Example 62, (S)-(1-(3-(3,4-methylenedioxyphenyl)-7-(3,5-difluorophenyl)-2-methylpyrazolo[1,5-a]pyrimidin-5-yl)pyrrolidin-2-yl)methanol] |
| 0.35 | Cc1nn2c(-c3ccc(Cl)cc3)cc(N3CCC[C@H]3CO)nc2c1-c1ccc(Cl)cc1 [Example 15] |
| 0.19 | COc1ccc(-c2c(C)nn3c(-c4ccc(F)c(Cl)c4)cc(N4CCC[C@H]4CO)nc23)cc1 [Example 46] |
| 0.19 | Cc1nn2c(-c3cccc(C(F)(F)F)c3)cc(N3CCC[C@H]3CO)nc2c1-c1ccc(F)c(F)c1 [Example 134] |
| 0.21 | COc1ccc(-c2c(C)nn3c(-c4cccc(C(F)(F)F)c4)cc(N4CCC[C@H]4CO)nc23)cc1F [Example 138] |
| 0.08 | Cc1ccc(-c2c(C)nn3c(-c4cccc(F)c4)cc(N4CCC[C@H]4CO)nc23)cc1 [Example 110, (S)-(1-(3-(4-methylphenyl)-7-(3-fluorophenyl)-2-methylpyrazolo[1,5-a]pyrimidin-5-yl)pyrrolidin-2-yl)methanol] |
| 0.19 | Cc1nn2c(-c3cccc(Cl)c3)cc(N3CCC[C@H]3CO)nc2c1-c1ccc2c(c1)OCO2 [Example 172] |
| 0.024 | COCc1nn2c(-c3cccc(C(F)(F)F)c3)cc(N3CCC[C@H]3CO)nc2c1-c1ccc2c(c1)OCO2 [Example 238] |
| 0.41 | Cc1ccc(-c2c(C)nn3c(-c4cc(F)cc(F)c4)cc(N4CCC[C@H]4CO)nc23)cc1 [Example 35] |
